In PubChem BioAssay (NCI):
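Test compounds were applied to cells in 96-well plates for 48 hours at 5 doses. The concentration for full growth arrest is given as TGI.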

Legend:
Experiment in all cases: NCI anticancer screen, dose series, 48 h
[1] = test system: OVCAR-8 ovarian
[2] = test system: RPMI-8226 leukemia
[3] = test system: SNB-75 CNS
[4] = test system: DLD-1 colon
[5] = test system: DMS 114 small cell lung
[6] = test system: DMS 273 small cell lung
[7] = test system: KM20L2 colon
[8] = test system: LXFL 529 NSCLC
[9] = test system: M19-MEL melanoma
[10] = test system: SNB-78 CNS
[11] = test system: XF 498 CNS
[12] = test system: HOP-18 NSCLC

In the case of `c1ccc(-c2cc(-c3ccncc3)cc(-c3ccncc3)n2)cc1`, the TGI [1] is reported as greater than 100 µM, the TGI [2] is reported as greater than 100 µM and the TGI [3] is reported as 99.1 µM.
Work on `COCC12CCC(OC)C34C5CC6(O)C(OC)C=C(C5C6OC(=O)c5ccccc5)C(C(OC)C13)C4N(C)C2` (configuration not stated) yielded a TGI [1] greater than 100 µM, a TGI [2] greater than 100 µM and a TGI [3] greater than 100 µM.
In the case of `COc1ccccc1N1C(=O)CSC1c1cc(OC)c(OC)c(OC)c1` (configuration not stated), the TGI [1] is reported as greater than 100 µM, the TGI [2] is reported as greater than 100 µM and the TGI [3] is reported as greater than 100 µM.
Molecule `Cc1cccc(N=C/C=C(\Cl)c2ccc3ccccc3c2)c1` has a TGI [1] of 43 µM, a TGI [2] of 29 µM and a TGI [3] greater than 58.2 µM.
For `CCCNCC(O)CNc1ccc(NCC(O)CNCCC)c2c1C(=O)c1ccccc1C2=O` (configuration not stated), the TGI [1] was 8.51 µM, the TGI [2] was 6.05 µM and the TGI [3] was 8.83 µM.
`COC(=O)CC(CNC(=O)OCc1ccccc1)OCc1ccc(OC)cc1` (configuration not stated) was tested, and the TGI [1] was greater than 100 µM, the TGI [2] was greater than 100 µM and the TGI [3] was greater than 100 µM.
With `CO[C@H]1O[C@@H]2OC3(C)CCC4[C@H](C)CCC([C@H]1C)[C@]42OO3` (some centres not stated) the TGI [1] was greater than 100 µM, the TGI [2] was greater than 100 µM and the TGI [3] was greater than 100 µM.
Molecule `COC(=O)[C@H](COC(C)(C)C)NC(=O)N[C@H](C)c1ccccc1` has a TGI [1] greater than 100 µM, a TGI [2] greater than 100 µM and a TGI [3] greater than 100 µM.
`CC1=NC=C(O)c2ccccc2O1` was tested, and the TGI [4] was greater than 100 µM, the TGI [5] was greater than 100 µM and the TGI [6] was greater than 100 µM. For the same molecule, the TGI [7] was greater than 100 µM, the TGI [8] was greater than 100 µM and the TGI [9] was greater than 100 µM. It also gave a TGI [1] greater than 100 µM, a TGI [2] greater than 100 µM and a TGI [10] greater than 100 µM.
`O=P(CCOc1ccccc1OCCP(=O)(c1ccccc1)c1ccc2c(c1)OCCOCCOCCOCCO2)(c1ccccc1)c1ccc2c(c1)OCCOCCOCCOCCO2` (configuration not stated) showed a TGI [4] greater than 100 µM, a TGI [5] greater than 100 µM and a TGI [6] greater than 100 µM. The TGI [7] was greater than 100 µM, the TGI [8] was greater than 100 µM and the TGI [9] was greater than 100 µM. For the same molecule, the TGI [1] was greater than 100 µM, the TGI [2] was greater than 100 µM and the TGI [3] was greater than 100 µM. The TGI [10] was greater than 100 µM and the TGI [11] was greater than 100 µM.
Work on `CCCCCC#COC1CC(C)CC[C@@H]1C(C)C` (some centres not stated) yielded a TGI [4] greater than 100 µM, a TGI [6] greater than 100 µM and a TGI [12] greater than 100 µM. The TGI [7] was greater than 100 µM, the TGI [8] was greater than 100 µM and the TGI [9] was greater than 100 µM. For the same molecule, the TGI [1] was greater than 100 µM, the TGI [2] was 69.7 µM and the TGI [3] was greater than 100 µM. For the same molecule, the TGI [10] was greater than 100 µM.
`CCN(CC)C(=S)N/N=C/c1cc(OC)ccc1O` showed a TGI [1] greater than 100 µM and a TGI [3] greater than 100 µM.
With `O=C(NCCc1ccccc1)c1cc(/C=C/c2cc(O)ccc2O)ccc1O` the TGI [1] was 16.3 µM, the TGI [2] was 7.21 µM and the TGI [3] was 13.7 µM.
With `CN1c2ccccc2C(=O)NC12CCNCC2` the TGI [1] was greater than 100 µM, the TGI [2] was greater than 100 µM and the TGI [3] was greater than 100 µM.
`CC1(C)SCc2nc3ccccc3n21` showed a TGI [1] greater than 100 µM, a TGI [2] greater than 100 µM and a TGI [3] of 3.56 µM.
Molecule `Cc1[nH]c2nc3c(ncn3COCCO)c(=O)n2c1C(c1ccccc1)(c1ccccc1)c1ccccc1` has a TGI [1] of 32.4 µM, a TGI [2] of 45.5 µM and a TGI [3] of 26.7 µM.
With `C/C(=C\CNc1ncnc2c1ncn2CCC(=O)OC(C)(C)C)CO` the TGI [1] was greater than 100 µM, the TGI [2] was greater than 100 µM and the TGI [3] was greater than 100 µM.
For `CSC1=C(C#N)C(=O)N(c2ccc(C)cc2)C(=O)C1C#N` (configuration not stated), the TGI [2] was greater than 100 µM.
With `CCCCCCCC(CC(=O)NC(CO)C(=O)NC(CO)CC(C)C)OC(=O)CC(CCCCCCC)OC(=O)CC(CCCCCCC)OC1OC(C)C(O)C(OC2OC(C)C(O)C(O)C2O)C1O` (configuration not stated) the TGI [4] was 31.7 µM, the TGI [5] was 16.5 µM and the TGI [6] was 24 µM. It also gave a TGI [12] of 32.1 µM, a TGI [7] of 32.1 µM and a TGI [8] of 18.1 µM. For the same molecule, the TGI [9] was 23.3 µM, the TGI [1] was 34.4 µM and the TGI [2] was 8.96 µM. For the same molecule, the TGI [3] was 24.9 µM and the TGI [10] was 39.1 µM.
Molecule `CC1CCC2CC1NC(=O)CCOCCC(=O)NC2(C)C` (configuration not stated) has a TGI [1] greater than 100 µM and a TGI [3] greater than 100 µM.
With `O=C(c1ccccc1)C(Nc1ccc2ccccc2c1)c1ccccc1` (configuration not stated) the TGI [1] was greater than 100 µM, the TGI [2] was 33.7 µM and the TGI [3] was greater than 71.9 µM.
With `O=C1Nc2ccccc2/C1=C\c1c(-c2ccccc2)nc2n1CCS2` the TGI [1] was greater than 100 µM, the TGI [2] was 65.8 µM and the TGI [3] was 42.8 µM.
For `CC(Cc1cccc2c1Nc1ccccc1S2)N(C)CCO` (configuration not stated), the TGI [1] was greater than 100 µM.
`COc1ccc2c(c1)-c1nc(=O)n(CCCN(C)C)c3ccc([N+](=O)[O-])c(c13)N2` was tested, and the TGI [1] was 19.4 µM, the TGI [2] was 0.694 µM and the TGI [3] was 8.51 µM.
`COc1ccc2[nH]c3c4c(cc(-c5ccccc5)c3c2c1)C(=O)N(c1ccccc1)C4=O` was tested, and the TGI [4] was greater than 100 µM, the TGI [5] was greater than 100 µM and the TGI [6] was 36.8 µM. For the same molecule, the TGI [12] was greater than 100 µM, the TGI [7] was greater than 100 µM and the TGI [8] was 64.3 µM. It also gave a TGI [9] greater than 100 µM, a TGI [1] of 39.6 µM and a TGI [2] greater than 100 µM. The TGI [3] was 37.2 µM and the TGI [10] was greater than 88.3 µM.
For `CN(C)CC1CCCCCCCCCCCCC(CN(C)C)C1=O` (configuration not stated), the TGI [4] was 29.6 µM, the TGI [5] was 31.3 µM and the TGI [6] was 22.9 µM. The TGI [12] was 30.1 µM, the TGI [7] was 24.9 µM and the TGI [8] was 28.1 µM. It also gave a TGI [9] of 25.1 µM, a TGI [1] of 22.4 µM and a TGI [3] of 24.6 µM. For the same molecule, the TGI [10] was 28.7 µM.
In the case of `CCOC(=O)C1(C#N)C(C#N)(C#N)C1(C#N)C#N`, the TGI [1] is reported as greater than 100 µM and the TGI [2] is reported as greater than 100 µM.
With `O=C1CCSc2nc(-c3ccc4c(c3)OCO4)nn21` the TGI [1] was greater than 10 µM, the TGI [2] was greater than 10 µM and the TGI [3] was greater than 10 µM.
`COC(=O)c1ccc(C)cc1C1CN=NC12Cc1cc(C)ccc1C2=O` (configuration not stated) gave a TGI [1] greater than 100 µM, a TGI [2] of 66.2 µM and a TGI [3] greater than 68.1 µM.
With `Nc1nc(N)c2ncn(-c3ccccc3)c2n1` the TGI [1] was greater than 100 µM and the TGI [2] was greater than 100 µM.
`O=C(O)C1=CN(c2ccncc2)C(c2ccco2)=CC1c1ccccc1[N+](=O)[O-]` (configuration not stated) gave a TGI [1] of 54.8 µM, a TGI [2] greater than 24.5 µM and a TGI [3] of 22.1 µM.
`Fc1cccc(C2SCc3nc4cc5ccccc5cc4n32)c1` (configuration not stated) was tested, and the TGI [1] was greater than 100 µM, the TGI [2] was greater than 100 µM and the TGI [3] was greater than 100 µM.
`Oc1c(Cl)c(Cl)c(O)c(CCNc2nccs2)c1Cl` showed a TGI [1] of 47.2 µM and a TGI [3] of 42.3 µM.
`COc1ccccc1NC(=O)C(=O)Cc1cnc2ccccc2n1` showed a TGI [1] greater than 100 µM, a TGI [2] greater than 100 µM and a TGI [3] greater than 100 µM.
